Data as given in patent US20110136728A1, “METHODS OF INCREASING BONE FORMATION USING LEPTIN-RELATED PEPTIDES” (priority 2009, published 2011).
No end group written: not given here.

System: ob/ob mouse model
Assay: Earlier study of OB3 and D-amino acid-substituted OB3 analogs: body weight gain, food and water intake, blood glucose
Format: in vivo
Conditions: mouse, in vivo
Source text: Single-point D-amino acid substitution was used to study the structure-function relationships of each amino acid residue in OB3, and to increase its efficacy. The restricted domain represented by OB3 contains a functional epitope, which has the ability to mimic at least some of the effects of leptin on energy balance and glucose homeostasis.
The design of peptide ligands involved the introduction of conformational constraints into native sequences by techniques that include, but are not limited to, D-amino acid substitution or cyclization. (Hruby and Bonner, Methods Mol Biol. 35:201-40 (1994)). Systematic replacement of L-amino acids by their D-amino acid isoforms was used to determine the stereostructural requirements of specific residues in a peptide for peptide-receptor interaction, and to assess the contribution of certain secondary structural motifs, e.g., α-helix or β-turn, to the bioactivity of the peptide. (Hruby, Biopolymers 33(7):1073-82 (1993) and Hruby, Life Sci. 52(10):845-55 (1993)). This approach increased peptide resistance to enzymatic hydrolysis, and to enhance the properties of biologically active peptides, including receptor binding, functional potency, and duration of action. (See Fauchere et al., Adv. Drug Res., 23:127-139 (1992); Doherty et al., J. Med. Chem., 36:2585-2594 (1993); Kirby et al., J. Med. Chem., 36:3802-3808 (1993); Morita et al., FEBS Lett., 353:84-88 (1994)).
(See Rozhayskaya-Arena M, et al., Endocrinology 141:2501-2517 (2000); Grasso P et al., Regulatory Pep. 101:123-129 (2001)).

For “SCSLPQT [OB3, amino acid residues 116-122 of mouse leptin]”, the “maximal reduction of blood glucose levels” value was “approximately 100 mg/dl”.
